# Laboratory results as given in the supplement of paper PMC10307832.
# Columns and labels:
# Assay in all cases: relative viability (nuclei count vs DMSO), 5 days (fraction); higher = more cells survive
# RO-3306 + Trametinib = compound: C1=CC2=C(C=CC(=C2)C=C3C(=O)NC(=NCC4=CC=CS4)S3)N=C1 [RO-3306] + CC(=O)Nc1cccc(-n2c(=O)n(C3CC3)c(=O)c3c(Nc4ccc(I)cc4F)n(C)c(=O)c(C)c32)c1 [Trametinib] (partner 0.02 µM)
# In short: (§1)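 Cells from lung cancer lines were seeded into 1536-well plates and, one day later, dosed by pin tool. Treatments were either a single drug or a fixed dose of an anchor drug with five library-drug doses (not always all listed) in √10 steps. After 5 days, nuclei were stained in a one-step fixation (final 0.05% Triton X-100, 1% formaldehyde, 1 ug/ml Hoechst) and counted on 4× images, and relative viability is the treated-to-vehicle nuclei ratio, as the median of duplicate plates.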
# [1] = compound: O=S(=O)(c1ccccc1)N(CC(F)(F)F)c1ccc(C(O)(C(F)(F)F)C(F)(F)F)cc1 + CC1(C)CCC(c2ccc(Cl)cc2)=C(CN2CCN(c3ccc(C(=O)NS(=O)(=O)c4ccc(N[C@H](CCN5CCOCC5)CSc5ccccc5)c(S(=O)(=O)C(F)(F)F)c4)cc3)CC2)C1 [Navitoclax] (partner 0.5 µM)
# In short: as §1
# RO-3306 + Tozasertib = compound: C1=CC2=C(C=CC(=C2)C=C3C(=O)NC(=NCC4=CC=CS4)S3)N=C1 [RO-3306] + Cc1cc(Nc2cc(N3CCN(C)CC3)nc(Sc3ccc(NC(=O)C4CC4)cc3)n2)n[nH]1 [Tozasertib] (partner 0.1 µM)
# In short: as §1
# RO-3306 + Bortezomib = compound: C1=CC2=C(C=CC(=C2)C=C3C(=O)NC(=NCC4=CC=CS4)S3)N=C1 [RO-3306] + CC(C)C[C@H](NC(=O)[C@H](Cc1ccccc1)NC(=O)c1cnccn1)B(O)O [Bortezomib] (partner 0.002 µM)
# In short: as §1
Cell Line,relative viability (RO-3306 + Trametinib; first compound 0.01 µM),relative viability (RO-3306 + Trametinib; first compound 0.03162 µM),relative viability (RO-3306 + Trametinib; first compound 0.1 µM),relative viability (RO-3306 + Trametinib; first compound 0.3162 µM),relative viability (RO-3306 + Trametinib; first compound 1 µM),relative viability ([1]; first compound 0.8 µM),relative viability ([1]; first compound 2.53 µM),relative viability ([1]; first compound 8 µM),relative viability (RO-3306 + Tozasertib; first compound 0.01 µM),relative viability (RO-3306 + Tozasertib; first compound 0.03162 µM),relative viability (RO-3306 + Tozasertib; first compound 0.1 µM),relative viability (RO-3306 + Tozasertib; first compound 0.3162 µM),relative viability (RO-3306 + Tozasertib; first compound 1 µM),relative viability (RO-3306 + Bortezomib; first compound 0.01 µM),relative viability (RO-3306 + Bortezomib; first compound 0.03162 µM),relative viability (RO-3306 + Bortezomib; first compound 0.1 µM),relative viability (RO-3306 + Bortezomib; first compound 0.3162 µM),relative viability (RO-3306 + Bortezomib; first compound 1 µM)
LU99A,0.638,0.522,0.556,0.554,0.575,1.02,0.694,0.776,0.285,0.257,0.258,0.254,0.231,1.38,1.09,1.04,0.98,1.07
LXF-289,0.741,0.63,0.647,0.673,0.695,0.879,0.826,0.852,0.216,0.199,0.187,0.181,0.199,0.992,0.928,1.05,0.95,0.929
NCI-H23,0.344,,0.352,0.388,0.375,1.11,0.804,0.817,0.279,0.304,0.394,0.124,0.301,1.04,0.755,1.1,0.944,0.773
NCI-H322M,0.561,0.445,0.515,0.54,0.531,1.29,1.12,1.2,0.549,0.467,0.443,0.476,0.432,1.17,1.12,1.19,1.32,1.22
NCI-H441,0.451,0.341,0.368,0.439,0.428,0.411,0.604,0.613,0.587,0.527,0.604,0.538,0.481,0.771,0.4,0.647,0.449,0.31
NCI-H460,0.162,0.115,0.139,0.223,0.128,1.42,1.01,0.967,0.217,0.542,0.392,0.116,0.0669,1.37,,1.1,1.34,0.776
NCI-H520,0.896,0.629,0.569,0.714,0.756,0.943,1.3,1.38,0.44,0.481,0.39,0.426,0.394,0.802,0.369,0.5,0.582,0.435
NCI-H596,0.798,0.773,0.722,0.793,0.58,1.02,0.904,0.826,0.837,0.712,0.771,0.834,0.794,0.939,0.917,1.18,0.812,0.962
NCI-H647,0.538,0.38,0.457,0.486,0.533,1.3,1.26,1.01,0.333,0.0513,0.304,0.269,0.158,1.13,0.889,1.04,0.931,0.751
NCI-H727,0.39,0.388,0.355,0.352,0.409,0.387,0.407,0.507,0.706,0.644,0.498,0.613,0.573,0.878,0.733,0.84,0.817,0.948
NCI-H838,0.596,0.487,0.54,0.557,0.45,1.3,1.25,1.09,0.308,0.283,0.255,0.258,0.264,0.825,0.523,0.661,0.808,0.685
NCI-H1355,0.472,0.324,0.404,0.448,0.376,1.09,0.754,0.826,0.473,,0.532,0.515,0.491,1.5,1.15,1.17,1.18,1.2
NCI-H1437,0.539,0.409,0.54,0.543,0.527,1.04,0.859,0.893,0.485,0.328,0.384,0.397,0.474,0.57,0.346,0.529,0.582,0.484
NCI-H1650,0.6,0.505,0.514,0.565,0.447,1.39,1.07,1.06,0.398,0.366,0.345,0.309,0.316,0.204,0.184,0.181,0.192,0.185
NCI-H1651,0.805,0.803,0.828,0.826,0.8,1.15,0.939,1.02,0.713,0.589,0.755,0.57,0.446,0.887,0.877,0.923,0.853,0.858
NCI-H1666,0.792,0.665,0.835,0.765,0.783,0.756,0.882,0.99,0.64,0.588,0.59,0.631,0.59,0.848,0.734,0.713,0.765,0.598
NCI-H1734,0.757,0.607,0.61,0.685,0.628,1.14,0.809,0.801,0.233,0.256,0.247,0.304,0.274,0.956,0.763,0.866,0.885,0.597
NCI-H1755,0.859,0.768,0.791,0.803,0.771,1.01,0.909,0.924,0.577,0.688,0.514,0.547,0.554,1.13,0.983,0.976,0.936,0.978

Cell Line,relative viability (RO-3306 + Trametinib; first compound 0.01 µM),relative viability (RO-3306 + Trametinib; first compound 0.03162 µM),relative viability (RO-3306 + Trametinib; first compound 0.1 µM),relative viability (RO-3306 + Trametinib; first compound 0.3162 µM),relative viability (RO-3306 + Trametinib; first compound 1 µM),relative viability ([1]; first compound 0.8 µM),relative viability ([1]; first compound 2.53 µM),relative viability ([1]; first compound 8 µM),relative viability (RO-3306 + Tozasertib; first compound 0.01 µM),relative viability (RO-3306 + Tozasertib; first compound 0.03162 µM),relative viability (RO-3306 + Tozasertib; first compound 0.1 µM),relative viability (RO-3306 + Tozasertib; first compound 0.3162 µM),relative viability (RO-3306 + Tozasertib; first compound 1 µM),relative viability (RO-3306 + Bortezomib; first compound 0.01 µM),relative viability (RO-3306 + Bortezomib; first compound 0.03162 µM),relative viability (RO-3306 + Bortezomib; first compound 0.1 µM),relative viability (RO-3306 + Bortezomib; first compound 0.3162 µM),relative viability (RO-3306 + Bortezomib; first compound 1 µM)
NCI-H1915,0.319,0.276,0.297,0.32,0.292,0.881,0.81,0.786,0.498,0.406,0.416,0.394,0.427,1.07,0.895,1.09,1.01,0.488
NCI-H1975,0.348,0.319,0.309,0.33,0.331,1.29,1.11,1.12,0.834,0.871,0.769,0.718,0.284,0.468,0.358,0.343,0.417,0.243
NCI-H1993,0.506,0.546,0.6,0.533,0.439,0.867,0.691,0.788,0.649,0.582,0.558,0.573,0.605,,1.11,1.02,0.887,0.777
NCI-H2009,0.283,0.272,0.247,0.273,0.254,0.965,1,0.938,0.816,0.707,0.722,0.671,0.707,0.994,0.82,1,1.06,1
NCI-H2023,0.554,0.442,0.444,0.509,0.529,1.07,0.888,0.845,0.401,0.327,0.254,0.241,0.308,1.01,0.795,0.979,1.13,1.07
NCI-H2085,0.509,0.632,0.527,0.613,0.595,1.14,1,1.03,0.763,0.775,0.78,0.712,0.641,1.09,0.956,0.935,0.993,1.04
NCI-H2087,0.176,0.193,0.188,0.234,0.202,1.03,0.942,0.916,0.254,0.19,0.214,0.228,0.217,0.726,0.843,0.729,0.947,0.738
NCI-H2126,0.555,0.488,0.577,0.584,0.476,0.892,0.824,0.877,0.867,0.841,0.781,0.749,0.75,1.14,1.18,1.12,1.05,1
NCI-H2228,0.541,0.43,0.436,0.62,0.281,0.839,0.89,0.713,0.225,0.219,0.221,0.168,0.223,0.937,0.47,0.917,0.893,0.636
NCI-H2347,0.283,0.271,0.262,0.264,0.274,0.955,0.921,0.582,0.616,0.616,0.628,0.525,0.514,1.07,0.633,0.98,0.823,0.711
NCI-H2405,0.637,0.557,0.636,0.63,0.613,1.11,1.01,0.896,0.746,0.723,0.704,0.675,0.628,1.07,0.963,0.982,0.959,1.03
NCI-H3122,0.241,0.223,0.26,0.237,0.227,1.04,0.964,1.06,0.449,0.413,0.42,0.475,0.284,0.952,1.01,1.06,1.03,0.738
PC-3 [JPC-3],0.715,0.697,0.704,0.694,0.65,0.8,0.724,0.7,0.872,0.825,0.892,0.852,0.416,0.936,0.82,0.965,0.865,0.805
PC-14,0.827,0.607,0.614,0.78,0.766,1.14,1.11,0.412,0.78,0.572,0.527,0.562,0.488,1.16,,0.991,0.941,0.865
RERF-LC-KJ,0.914,0.907,0.862,0.881,0.935,0.863,0.802,0.87,0.634,0.434,0.546,0.521,0.463,1.3,0.952,1.01,0.987,1.01
SK-LU-1,0.463,0.412,0.501,0.506,0.309,1.18,0.865,0.56,0.266,0.312,0.313,0.321,0.282,0.767,0.932,1.08,1.34,0.853
SW 1573,0.636,0.428,0.539,0.604,0.573,1.26,0.874,0.641,0.198,,0.17,0.175,0.168,1.22,,0.924,0.972,0.894
